Measured values: patent US6407288B1, “Naphthylsalicylanilides as antimicrobial and antiinflammatory agents” (The Research Foundation of State University of New York, priority 2000, dated 2002)
In brackets after ≈: the same amount, converted by molar mass.

What was measured:
S. mutans = assay: MIC microdilution, gram positive; format: cell-based, Streptococcus mutans; conditions: Streptococcus mutans; Table 1, Gram Positive
Outline: (§1)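 Anaerobic strains required supplemented half-strength BHI and incubation in 5% CO2, 10% H2, balance N2; aerobic strains used full-strength BHI. Inoculum approx. 1×10^8 CFU/mL; compounds from DMSO, 50 to 0.05 μg/assay; visual MIC.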

S. sanguis = assay: MIC microdilution, gram positive; format: cell-based, Streptococcus sanguis; conditions: Streptococcus; Table 1, Gram Positive
Outline: as §1

S.salivarius = assay: MIC microdilution, gram positive; format: cell-based, Streptococcus salivarius; conditions: Streptococcus salivarius; Table 1, Gram Positive
Outline: as §1

A. viscosus = assay: MIC microdilution, gram positive; format: cell-based, Actinomyces viscosus; conditions: Actinomyces viscosus; Table 2, Gram Positive
Outline: as §1

Lact 7496 = assay: MIC microdilution, gram positive; format: cell-based, Lactobacillus rhamnosus (casei); conditions: Lacticaseibacillus rhamnosus, 7496; Table 2, Gram Positive
Outline: as §1

M. luteus = assay: MIC microdilution, gram positive; format: cell-based, Micrococcus luteus; conditions: Micrococcus luteus; Table 2, Gram Positive
Outline: as §1

Fuso. 25586 = assay: MIC microdilution, gram negative; format: cell-based, Fusobacterium nucleatum; conditions: for MIC: Fusobacterium nucleatum, Table 3, Gram Negative; for MIC Fuso. 25586: Table 3 printed a second time, Gram Negative
Outline: (§2)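 Modified NCCLS broth microdilution; anaerobes grown 48-72 hrs in half-strength BHI with yeast extract, hemin and menadione, aerobes in full-strength BHI, inoculum ~1×10^8 CFU/mL (10 μL/assay). Drugs from DMSO stock, final 50 to 0.05 μg/assay, duplicate, 24 to 48 hrs (anaerobic: 5% CO2, 10% H2, N2); MIC = lowest concentration without visible growth.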

Aa Y4 = assay: MIC microdilution, gram negative; format: cell-based, Actinobacillus actinomycetemcomitans; conditions: for MIC: Aggregatibacter actinomycetemcomitans, Y4, Table 3, Gram Negative; for MIC Aa Y4: Table 3 printed a second time, Gram Negative
Outline: as §2

Str. pn. R = assay: Mean Streptococcus MIC; format: cell-based; conditions: Streptococcus; Table 5, mean; strain resistant to penicillin and erythromycin
Outline: (§3)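 Modified NCCLS broth microdilution in duplicate: 10 μL inoculum from cultures diluted to about 1×10^8 CFU/mL, drug 50 to 0.05 μg/assay diluted from DMSO stock. Full-strength BHI for aerobes, supplemented half-strength BHI under 5% CO2/10% H2/N2 for anaerobes, 24–48 h; MIC as lowest concentration without visible growth.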

Str. pn = assay: Mean Streptococcus MIC; format: cell-based; conditions: Streptococcus; Table 5, mean
Outline: as §3

Str. pyo = assay: Mean Streptococcus MIC; format: cell-based; conditions: Streptococcus; Table 5, mean
Outline: as §3

SMILES | MIC (S. mutans) [µg/mL] | MIC (S. sanguis) [µg/mL] | MIC (S.salivarius) [µg/mL] | MIC (A. viscosus) [µg/mL] | MIC (Lact 7496) [µg/mL] | MIC (M. luteus) [µg/mL] | MIC (Fuso. 25586) [µg/mL] | MIC (Aa Y4) [µg/mL] | MIC (Str. pn. R) [µg/mL] | MIC (Str. pn) [µg/mL] | MIC (Str. pyo) [µg/mL] | MIC Fuso. 25586 (Fuso. 25586) | MIC Aa Y4 (Aa Y4)
N#Cc1cccc(NC(=O)c2cc(C(=O)c3ccc(-c4ccccc4)cc3)ccc2O)c1 [BPAmC, reference compound] | > 50 | > 50 | > 50 | > 50 | 12.5 (≈ 29.9 µM) | 3.1 (≈ 7.41 µM) | > 50 | > 50 | > 50 | 0.58 (≈ 1.39 µM) | – | NE (NE indicates that the drug was not effective at a concentration >50 micrograms/ml) | NE (NE indicates that the drug was not effective at a concentration >50 micrograms/ml)
N#Cc1cccc(NC(=O)c2cc(C(=O)c3cccc4ccccc34)ccc2O)c1 [NA1mC] | 3.1 (≈ 7.9 µM) | 6.3 (≈ 16.1 µM) | 50 (≈ 127 µM) | 3.2 (≈ 8.15 µM) | 3.1 (≈ 7.9 µM) | 3.1 (≈ 7.9 µM) | 2.5 (≈ 6.37 µM) | 6.3 (≈ 16.1 µM) | 12.5 (≈ 31.9 µM) | 1.1 (≈ 2.8 µM) | 16.7 (≈ 42.5 µM) | 2.5 micrograms/ml | 6.3 micrograms/ml

The next lines start with results.

MIC (S. mutans) [µg/mL] | MIC (S. sanguis) [µg/mL] | MIC (S.salivarius) [µg/mL] | MIC (A. viscosus) [µg/mL] | MIC (Lact 7496) [µg/mL] | MIC (M. luteus) [µg/mL] | MIC (Fuso. 25586) [µg/mL] | MIC (Aa Y4) [µg/mL] | MIC (Str. pn. R) [µg/mL] | MIC (Str. pn) [µg/mL] | MIC (Str. pyo) [µg/mL] | SMILES | MIC Fuso. 25586 (Fuso. 25586) | MIC Aa Y4 (Aa Y4)
0.8 (≈ 1.84 µM) | 0.8 (≈ 1.84 µM) | 3.1 (≈ 7.12 µM) | < 0.1 | 0.4 (≈ 0.919 µM) | 0.8 (≈ 1.84 µM) | 3.1 (≈ 7.12 µM) | 3.1 (≈ 7.12 µM) | 0.78 (≈ 1.79 µM) | 0.45 (≈ 1.03 µM) | 1 (≈ 2.3 µM) | O=C(Nc1cccc(C(F)(F)F)c1)c1cc(C(=O)c2cccc3ccccc23)ccc1O [NA1mF] | 3.1 micrograms/ml | 3.1 micrograms/ml
> 50 | > 50 | > 50 | > 50 | 6.3 (≈ 14.3 µM) | 3.1 (≈ 7.02 µM) | > 50 | > 50 | > 50 | 0.45 (≈ 1.02 µM) | – | CCCCc1ccc(C(=O)c2ccc(O)c(C(=O)Nc3cccc(C(F)(F)F)c3)c2)cc1 [BBAmF, reference compound] | NE (NE indicates that the drug was not effective at a concentration >50 micrograms/ml) | NE (NE indicates that the drug was not effective at a concentration >50 micrograms/ml)
> 50 | > 50 | > 50 | > 50 | 6.3 (≈ 13.7 µM) | 3.1 (≈ 6.72 µM) | > 50 | > 50 | > 50 | 0.84 (≈ 1.82 µM) | – | O=C(c1ccc(-c2ccccc2)cc1)c1ccc(O)c(C(=O)Nc2cccc(C(F)(F)F)c2)c1 [BPAmF, reference compound] | NE (NE indicates that the drug was not effective at a concentration >50 micrograms/ml) | NE (NE indicates that the drug was not effective at a concentration >50 micrograms/ml)
